Reference: patent publication US20130123460A1, “PEPTIDE FOR IMPROVING BIOSTABILITY OF BIOACTIVE SUBSTANCE, AND BIOACTIVE SUBSTANCE HAVING IMPROVED BIOSTABILITY” (priority 2010, published 2013)
Where a SMILES comes first, the peptide text is derived from it. Bridges are numbered along the chain shown (N, C = ends).

Columns and labels:
in vitro = conditions: SD, rat, plasma
Procedure: The plasma stability was evaluated in vitro, in order to inspect the biostability of the somatostatin peptide complex.
SD rats were anesthetized with diethyl ether, whole blood was collected, and a plasma fraction was separated therefrom. The somatostatin or somatostatin peptide complex was added to the plasma so that the final concentration thereof was 0.5 μmol/L, and the mixture was incubated at 37° C. A sample was recovered after 0, 8 or 48 hours, and a remaining rate was evaluated by an HPLC/MS measurement of an amount of the somatostatin or somatostatin peptide complex.

db/db mice = assay: Sustained blood glucose-lowering effect in type 2 diabetes mellitus model mice; assay type: in vivo; conditions: subcutaneous, 50 nmol/kg
Procedure: The improvement of the biostability was evaluated using a duration time of blood glucose-lowering effect in vivo as an indicator. […] The blood glucose level was measured using Glucose Test Wako (Wako Pure Chemical Industries, Ltd.).

remaining at 8 h, 0.5 μmol/L (in vitro)	remaining at 48 h, 0.5 μmol/L (in vitro)	Molecule	Time after administration at which the glucose-lowering effect disappeared (db/db mice)
56%	0%	CC[C@H](C)[C@H](NC(=O)[C@H](CCC(=O)O)NC(=O)[C@H](CC(=O)O)NC(=O)[C@@H](NC(=O)[C@H](CC(C)C)NC(=O)[C@H](C)NC(=O)[C@H](CCCCN)NC(=O)[C@@H](NC(=O)CNC(=O)[C@H](CCC(=O)O)NC(=O)[C@@H](NC(=O)[C@@H](NC(=O)[C@H](CCCCN)NC(=O)[C@H](C)NC(=O)[C@@H]1CSSC[C@H](NC(=O)CNC(=O)[C@H](C)N)C(=O)N[C@@H](CCCCN)C(=O)N[C@@H](CC(N)=O)C(=O)N[C@@H](Cc2ccccc2)C(=O)N[C@@H](Cc2ccccc2)C(=O)N[C@@H](Cc2c[nH]c3ccccc23)C(=O)N[C@@H](CCCCN)C(=O)N[C@@H]([C@@H](C)O)C(=O)N[C@@H](Cc2ccccc2)C(=O)N[C@@H]([C@@H](C)O)C(=O)N[C@@H](CO)C(=O)N1)[C@@H](C)O)C(C)C)C(C)C)[C@@H](C)CC)C(=O)N[C@@H](CC(C)C)C(=O)N[C@@H](C)C(=O)N[C@@H](C)C(N)=O [Example 28, SRIF(1-14)-GAm(28-44)-NH2] (H-AGCKNFFWKTFTSCAKTVEGVKALIDEILAA-NH2; disulfide 3-14; N-terminus assumed)	–
–	–	[Ser8]-GLP-1(7-36)-NH2 [Comparative Example 2]	two hours
